Data reported in publication PMC4685510, “A Cell Biologist’s Field Guide to Aurora Kinase Inhibitors” (Frontiers in Oncology, 2015).

Columns and labels:
RPE1 cells = experiment: Cytokinesis assay (live imaging, YFP-α-tubulin; H2B-RFP), RPE1; format: cell-based; conditions: Homo sapiens, RPE-1; RPE1; cytokinesis failure; read-out: Cytokinesis IC50
Aurora A-TPX2 = conditions: ref 61; read-out: Aurora A-TPX2 Ki (Published); cited from earlier work

For `CCn1cc(-c2ccnc3[nH]c(-c4cccc(CN(C)C)c4)cc23)c(-c2ccc(NC(=O)N(C)C)cc2)n1` [GSK1070916], the IC50 (RPE1 cells) is listed as 21 nM and the Ki (Aurora A-TPX2) is listed as 492 nM.
